# Entries after “also recorded” stand apart in the source; their conditions may differ. Like-named read-outs stand apart in the source and are kept apart here.
# Tests used:
# MiaPaCa2 cells [1] = experiment: Cellular oxidants, HE probe with HPLC profiling; assay type: cell-based, human; details: 10 μM
# Procedure: FIG. 14. Stimulation of cellular oxidants by Mito-NP in pancreatic cancer cells. Profiles of HE oxidation products in MiaPaCa2 cells treated with Mito-NP (10 μM, 4 h).
# (§1) FIG. 18. (A) Intracellular level of Mito-NP and Mito-NPH. (B) Dynamics of inhibition of mitochondrial respiration by Mito-NP and Mito-NPH. (C) Intracellular generation. 10 μM Mito-NP or Mito-NPH was used.
# 2.1. Generation of O2.^− and other oxidants. […] We have confirmed the mitochondrial localization of O2.^− production using Mito-SOX (Mito-HE-C6) probe with HPLC-based detection of, 2-OH-Mito-E^+, the O2.^−-specific oxidation product of MitoSOX (not shown).
# (§2) We treated pancreatic cancer cells with Mito-NP or Mito-NPH and the intracellular levels of both oxidized, redox-cycling capable Mito-NP, and its cell membrane-permeable reduced precursor, Mito-NPH, were measured using LC-MS/MS. […] The dynamics of inhibition of mitochondrial respiration by Mito-NPH and Mito-NP was used to follow the compounds' uptake rates. […] The increased intracellular level of Mito-NP upon treatment with Mito-NPH also translated into 2-fold stronger stimulation of intracellular O2.^− production, as measured by monitoring O2.^−-specific product of hydroethidine oxidation, 2-OH-E^+ (FIG. 18C). […] Next, we tested the effects of Mito-NPH on MiaPaCa2 cell proliferation and survival. […] 5. Syngraft mouse model. We have established a preliminary syngraft model using mouse FC1242 PDAC cell line. After the tumor has been established and detectable by palpation (seven days after injection of tumor cells), Mito-NPH (0.2 mg per injection) was administered three times per week. Tumor size was measured using calipers and by weighing the tumor tissues at the completion of the study. […] The tumor tissues were analyzed for the level of Mito-NP and Mito-NPH 24 h after the last injection of Mito-NPH.
# MiaPaCa2 cells [2] = assay type: cell-based
# Procedure: (§3) FIG. 13. […] Cells were stained with Sytox Green dye after 48-h treatment with the compounds to label dead cells.
# FIG. 19. […] MiaPaCa2 cells were incubated with the compounds for 5 days and cells counted (A) or for 24 h, followed by labeling with Sytox Green dead cell fluorescent stain (B).
# (§4) 1. Antiproliferative and cytotoxic effects in pancreatic cancer cells. […] To determine the cytotoxic potency of Mito-NP, we used Sytox Green fluorescent marker, which accumulates in dead cells and increases its fluorescence yield upon binding DNA.
# We treated pancreatic cancer cells with Mito-NP or Mito-NPH and the intracellular levels of both oxidized, redox-cycling capable Mito-NP, and its cell membrane-permeable reduced precursor, Mito-NPH, were measured using LC-MS/MS. […] The dynamics of inhibition of mitochondrial respiration by Mito-NPH and Mito-NP was used to follow the compounds' uptake rates. […] Next, we tested the effects of Mito-NPH on MiaPaCa2 cell proliferation and survival. […] 5. Syngraft mouse model. We have established a preliminary syngraft model using mouse FC1242 PDAC cell line. […] Tumor size was measured using calipers and by weighing the tumor tissues at the completion of the study. […] The tumor tissues were analyzed for the level of Mito-NP and Mito-NPH 24 h after the last injection of Mito-NPH.
# FC1242 cells = experiment: Inhibition of pancreatic cancer cell growth; assay type: cell-based, mouse
# Procedure: (§5) FIG. 12. (A) Antiproliferative potency of Mito-NP against different pancreatic cancer cells. (B) Comparison of the antiproliferative effects of Mito-NP, with its untargeted analogs (10 μM each).
# as §4
# mitochondrial Prx3 [3] = experiment: Redox status of peroxiredoxin 3; assay type: cell-based, human; details: MiaPaCa2 cells
# From the text: (§6) FIG. 15. Effect of Mito-NP on the redox status of cytosolic (Prx1) and mitochondrial (Prx3) peroxiredoxins in MiaPaCa2 cells. *p<0.05, ***p<0.001.
# (§7) 2.2. Prx oxidation. Increased production of O2.^− results in elevated H2O2 flux. We tested the effect of Mito-NP on the redox status of cytosolic (Prx1) and mitochondrial (Prx3) peroxiredoxins (FIG. 15A).
# MiaPaCa2 cells [4] = experiment: Bioenergetic function, Seahorse XF96 flux analyzer; assay type: cell-based, human
# Procedure: FIG. 16. Inhibition of mitochondrial respiration by Mito-NP in MiaPaCa2 cells. (A) Mito-NP injected during the measurements. (B) Cells pretreated with Mito-NP for 24 h. (C) Effect of Mito-NP concentration on ATP-linked respiration rate after 1 h and 24 h incubation. (D) Effect of Mito-NP concentration on glycolytic and mitochondrial ATP production rates after 24-h incubation.
# as §1
# Immediately (1 h) after injection, a high concentration of Mito-NP (100 μM) was needed to block ATP-linked respiration (FIG. 16A,C). […] One of the hallmarks of cancer cells is their flexibility in using different energetic substrates to sustain growth in the presence of metabolism-targeted drugs.
# as §2
# [5] = system: HPNE non-tumorigenic pancreatic duct cell line; experiment: Cytotoxicity, Sytox Green dead cell stain; assay type: cell-based, human; details: HPNE non-cancer cells, 48-h treatment
# From the text: as §3, §4
# MiaPaCa2 cells [6] = experiment: Inhibition of pancreatic cancer cell growth; assay type: cell-based, human
# Procedure: as §5
# FIG. 19. Antiproliferative (A) and cytotoxic (B) potency of Mito-NP vs. Mito-NPH. MiaPaCa2 cells were incubated with the compounds for 5 days and cells counted (A) or for 24 h, followed by labeling with Sytox Green dead cell fluorescent stain (B).
# as §4
# We treated pancreatic cancer cells with Mito-NP or Mito-NPH and the intracellular levels of both oxidized, redox-cycling capable Mito-NP, and its cell membrane-permeable reduced precursor, Mito-NPH, were measured using LC-MS/MS. […] The increased intracellular level of Mito-NP upon treatment with Mito-NPH also translated into 2-fold stronger stimulation of intracellular O2.^− production, as measured by monitoring O2.^−-specific product of hydroethidine oxidation, 2-OH-E^+ (FIG. 18C). […] Tumor size was measured using calipers and by weighing the tumor tissues at the completion of the study. […] The tumor tissues were analyzed for the level of Mito-NP and Mito-NPH 24 h after the last injection of Mito-NPH.
# Panc1 cells = experiment: Inhibition of pancreatic cancer cell growth; assay type: cell-based, human
# Procedure: as §5, §4
# LS513 cells [7] = experiment: Cell proliferation, IncuCyte cell confluence; assay type: cell-based, human; details: for IC50: estimated from concentration dependence
# Procedure: FIG. 8. Effect of Mito-Py compounds (10 μM) on the proliferation of LS513 cells. (A) Effect of the substituent on the pyridinium ring. (B) Effect of the alkyl linker length in Mito-NP.
# FIG. 9. Effect of concentration of Mito-NP-C8 and Mito-NP-C10 on the LS513 cell confluence. Dashed lines correspond to 50% cell confluence.
# Antiproliferative effects of mitochondria-targeted pyridinium cations. To test if the mitochondrial redox stress induced by Mito-Py compounds would translate into inhibition of cancer cell proliferation, we compared the effects of Mito-Py of different redox potential and different alkyl linker length on proliferation of LS513 cells. We used the IncuCyte™ Live-Cell Imaging Analyzer that provides real-time cell confluence data (FIG. 8).
# cytosolic Prx1 = experiment: Redox status of peroxiredoxin 1; assay type: cell-based, human; details: MiaPaCa2 cells
# From the text: as §6, §7
# LS513 cells [8] = experiment: Cell death, Sytox Green; assay type: cell-based, human; details: prolonged (>24 h) incubation
# LS513 colon cancer cells [9] = experiment: Superoxide production, hydroethidine (HE) assay with HPLC of 2-OH-E+; assay type: cell-based, human; details: 50 μM, 1 h pre-incubation then 1 h HE probe
# Procedure: FIGS. 5A-5B. Stimulation of intracellular superoxide of Mito-Py. LS513 colon cancer cells were pre-incubated for 1 h with 50 μM Mito-Py followed by 1-h incubation with the HE probe. 2-OH-E^+ is a specific product of the reaction of the probe with superoxide. (A) Effect of the substituent on the pyridinium ring. (B) Effect of the alkyl linker length in Mito-NP.
# Induction of superoxide production by mitochondria-targeted pyridinium cations.
# LS513 colon cancer cells [10] = experiment: Oxygen consumption rate / mitochondrial respiration; assay type: cell-based, human
# Procedure: FIG. 7. Effect of Mito-NP-C10 (0-100 μM) on the rates of oxygen consumption (OCR) by LS513 colon cancer cells, and on the cell response to mitochondrial stressors: oligomycin (ATP synthase inhibitor), dinitrophenol (DNP, mitochondrial uncoupler) and antimycin A (mitochondrial complex III inhibitor).
# Induction of bioenergetic stress. To test the effect of Mito-NP-C10 on the bioenergetic function of LS513 cells, we monitored the mitochondrial respiration in response to acute addition of the compound at different doses (FIG. 7).
# mitochondrial Prx3 [11] = experiment: Redox blotting of peroxiredoxin 3; assay type: cell-based, human; details: 10 μM, 1 h, LS513 cells
# Procedure: FIG. 6. Effect of Mito-NP-C10 (10 μM, 1 h) on the redox status of cytosolic (Prx1) and mitochondrial (Prx3) peroxiredoxins. **p<0.01
# Intracellular localization of redox stress. To understand the fate of superoxide induced by Mito-NP-C10 and determine the localization of the redox cycling process, we performed redox blotting of peroxiredoxin isoforms 1 and 3 (Prx1 and Prx3).
# FC1242 PDAC tumor = experiment: Syngraft mouse model, tumor growth; assay type: in vivo; details: 0.2 mg per injection, three times per week, 9 days of treatment, FC1242 syngraft in mice
# From the text: (§8) FIG. 20. In vivo effects of Mito-NPH on the FC1242 PDAC tumor growth in mice. (A) Tumor growth curves; (B) tumor wet weight after 9 days of treatment; and (C) LC-MS/MS traces of Mito-NP, Mito-NPH, and their metabolites: hydroxylamine (Mito-HAP) and amine (Mito-AP) derivatives extracted from tumor. n=5 per group, *p<0.05
# as §2, with “After the tumor has been established and detectable by palpation (seven days after injection of tumor cells), Mito-NPH (0.2 mg per injection) was administered three times per week.” left out
# [12] = Tumor tissue compound levels, LC-MS/MS; assay type: in vivo, mouse; details: 24 h after the last injection of Mito-NPH
# From the text: as §8
# as §2, with “After the tumor has been established and detectable by palpation (seven days after injection of tumor cells), Mito-NPH (0.2 mg per injection) was administered three times per week.” left out
smiles,measurement,setting,value
O=[N+]([O-])c1ccc[n+](CCCCCCCCCC[P+](c2ccccc2)(c2ccccc2)c2ccccc2)c1 [Mito-NP],O2.- production (2-OH-E+),MiaPaCa2 cells [1]; 4 h,significant increase
same,other HE oxidation products,MiaPaCa2 cells [1]; 4 h,An increased level of other oxidation products
same,cell death (Sytox Green),MiaPaCa2 cells [2]; 48-h treatment,dose-dependently induced death of MiaPaCa2 cells; also recorded: significantly stronger inducer of MiaPaCa2 cell death than Mito-Met
same,IC50,FC1242 cells,3100 ± 100 nM
same,oxidation of mitochondrial Prx3,mitochondrial Prx3 [3],strong oxidation of mitochondrial Prx3
same,mitochondrial respiration,MiaPaCa2 cells [4],time- and concentration-dependent inhibition of mitochondrial respiration
same,ATP-linked respiration,"MiaPaCa2 cells [4]; 10 μM, 24-h incubation",complete inhibition of ATP-linked respiration
same,rate of mitochondrial ATP production,MiaPaCa2 cells [4]; 24-h incubation,decrease in the rate of mitochondrial ATP production
same,concentration needed to block ATP-linked respiration,MiaPaCa2 cells [4]; 1 h after injection,100 µM
same,glycolytic ATP production,"MiaPaCa2 cells [4]; concentrations higher than 10 μM, 24-h incubation",decreased at higher concentrations
same,glycolytic ATP production,"MiaPaCa2 cells [4]; concentrations up to 10 μM, 24-h incubation",remained unchanged
same,cell death (Sytox Green),[5],No induction of cell death
same,IC50,MiaPaCa2 cells [6]; read-out: IC50 (cell growth),2700 ± 200 nM
same,IC50,Panc1 cells,2800 ± 300 nM
same,cell proliferation (confluence),LS513 cells [7]; 10 μM,blocked the proliferation of colon cancer cells
same,oxidation of cytosolic Prx1,cytosolic Prx1,only modest effect on cytosolic Prx1
O=[N+]([O-])c1ccc[n+](CCCCCCCCCC[P+](c2ccccc2)(c2ccccc2)c2ccccc2)c1 [Mito-NP-C10],cell death (Sytox Green),LS513 cells [8],results in cell death
same,superoxide production (2-OH-E+),LS513 colon cancer cells [9],most potent inducer of superoxide production
same,IC50,LS513 cells [7],6000 nM
same,"response to mitochondrial stressors (oligomycin, DNP, antimycin A)",LS513 colon cancer cells [10]; 0-100 μM,a loss in response to oligomycin
same,mitochondrial respiration rates (OCR),"LS513 colon cancer cells [10]; 0-100 μM, acute addition",time- and concentration-dependent inhibition in mitochondrial respiration rates
same,antimycin A-independent oxygen consumption,LS513 colon cancer cells [10]; 30 and 100 μM,increased the rates of antimycin A-independent oxygen consumption
same,oxidation of mitochondrial Prx3,mitochondrial Prx3 [11],induces significant oxidation of mitochondrial Prx3
O=[N+]([O-])c1ccc[n+](CCCCCCCC[P+](c2ccccc2)(c2ccccc2)c2ccccc2)c1 [Mito-NP-C8],cell death (Sytox Green),LS513 cells [8],results in cell death
same,superoxide production (2-OH-E+),LS513 colon cancer cells [9],stimulated superoxide production
same,IC50,LS513 cells [7],13000 nM
O=[N+]([O-])C1=CN(CCCCCCCCCC[P+](c2ccccc2)(c2ccccc2)c2ccccc2)C=CC1 [Mito-NPH],stimulation of intracellular O2.- production (2-OH-E+) vs Mito-NP,MiaPaCa2 cells [1],2 fold
same,cytotoxic potency (Sytox Green) vs Mito-NP,MiaPaCa2 cells [2]; 24 h,significantly stronger cytotoxic agent
same,dynamics of inhibition of mitochondrial respiration vs Mito-NP,MiaPaCa2 cells [4]; 10 μM,More efficient inhibition of mitochondrial respiration
same,IC50,"MiaPaCa2 cells [6]; 5 days incubation, read-out: IC50 (antiproliferative, cell count)",1200 ± 100 nM
same,"tumor growth (size, wet weight)",FC1242 PDAC tumor,inhibition of the tumor growth
same,compound level in tumor tissues,[12],detected both Mito-NP and Mito-NPH

# From US12358935B2, “Targeting redox-active pyridinium cations to mitochondria to inhibit proliferation of drug-resistant cancer cells” (The Medical College of Wisconsin, Inc., priority 2018, dated 2025)
